Results published in patent publication US8362000B2, “Azetidinyl diamides as monoacylglycerol lipase inhibitors” (Janssen Pharmaceutica NV, priority 2009, dated 2013).
Positions count from the first letter of the chain named. Like-named read-outs stand apart in the source and are kept apart here.

Tests used:
[1] = molecular target: T1, mutant MGL (Homo sapiens, UniProt Q99685, L169S/L176S); test: MGL ThermoFluor assay - mutant; format: binding
T1 sequence (Q99685 1-303 L169S/L176S): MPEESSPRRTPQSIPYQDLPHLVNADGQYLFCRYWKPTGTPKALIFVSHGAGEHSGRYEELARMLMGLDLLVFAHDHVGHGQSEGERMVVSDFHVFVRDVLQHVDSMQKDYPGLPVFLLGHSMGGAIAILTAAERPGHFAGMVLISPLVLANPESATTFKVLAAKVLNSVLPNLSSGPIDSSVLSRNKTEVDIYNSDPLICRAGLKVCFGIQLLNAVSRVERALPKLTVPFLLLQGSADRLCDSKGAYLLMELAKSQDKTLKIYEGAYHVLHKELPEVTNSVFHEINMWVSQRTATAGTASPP

[2] = molecular target: T2, purified wild type MGL (wt-MGLL 6H-11-313) (Homo sapiens, UniProt Q99685)
T2 sequence (Q99685 1-303): T1 sequence (Q99685 1-303 L169S/L176S) with S169L, S176L

[3] = molecular target: T3, MGL (Rattus norvegicus, UniProt Q8R431); test: 2-AG accumulation assay in rat brain homogenate; format: biochemical; conditions: rat brain homogenate; compound 1 μM; 2-AG accumulation as percent of vehicle; read-out: Rat Brain 2AG % VehCntrl (%) @ 1 μM
T3 construct: one g rat brain was homogenized using a Polytron homogenizer; from tissue; host or cells: rat brain homogenate
T3 sequence (Q8R431 1-303): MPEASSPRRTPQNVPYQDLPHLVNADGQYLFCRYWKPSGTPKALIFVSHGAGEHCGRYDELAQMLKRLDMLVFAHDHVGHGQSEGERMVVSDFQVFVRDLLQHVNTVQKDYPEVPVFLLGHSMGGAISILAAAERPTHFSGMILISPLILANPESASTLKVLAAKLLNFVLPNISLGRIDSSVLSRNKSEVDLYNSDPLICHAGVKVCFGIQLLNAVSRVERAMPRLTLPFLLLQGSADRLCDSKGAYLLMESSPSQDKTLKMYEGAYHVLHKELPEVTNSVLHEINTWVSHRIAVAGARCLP

[4] = ThermoFluor, compound concentration measured by qNMR, read-out: MGL mutant ThermoFluor qKd (μM) (using qNMR conc.)
[5] = ThermoFluor concentration-response, read-out: MGL mutant ThermoFluor Kd
[6] = ThermoFluor thermal stability binding assay, read-out: MGL mutant ThermoFluor Kd
[7] = ThermoFluor, compound concentration measured by qNMR, read-out: MGL mutant ThermoFluor qKd (using qNMR conc.)

`Cn1ccc2cc(C(=O)N3CC(N4CCN(C(=O)c5nccs5)CC4)C3)cc(-c3cccc(F)c3)c21` [Cpd 1066] gave a Kd [1, 4] of 0.031 µM, an IC50 [2] of 0.007 µM and a 2-AG accumulation, % of vehicle control at 1 µM [3] of 609%.
`COc1ccc(-c2cccc(C(=O)N3CC(N4CCN(C(=O)c5nccs5)CC4)C3)c2)cc1` [Cpd 1091] showed a Kd [1, 5] of 1.64 µM, an IC50 [2] of 0.011 µM and a 2-AG accumulation, % of vehicle control at 1 µM [3] of 450%.
For `O=C(c1cscn1)N1CCN(C2CN(C(=O)c3cc4ccn(-c5ccc(F)cc5)c4cc3F)C2)CC1` [Cpd 1069], the Kd [1, 5] was 0.028 µM, the IC50 [2] was 0.007 µM and the 2-AG accumulation, % of vehicle control at 1 µM [3] was 696%.
`O=C(c1nccs1)N1CCN(C2CN(C(=O)c3cc(-c4ccccc4)ccc3F)C2)CC1` [Cpd 1208] was tested, and the Kd [1, 5] was 1 µM, the IC50 [2] was 0.19 µM and the 2-AG accumulation, % of vehicle control at 1 µM [3] was 212%.
For `Cc1c(C(=O)N2CC(N3CCN(C(=O)c4nccs4)CC3)C2)[nH]c2ccc(Cl)cc12` [Cpd 688, 5-Chloro-3-methyl-2-({3-[4-(1,3-thiazol-2-ylcarbonyl)piperazin-1-yl]azetidin-1-yl}carbonyl)-1H-indole], the Kd [1, 5] was 0.046 µM, the IC50 [2] was 0.044 µM and the 2-AG accumulation, % of vehicle control at 1 µM [3] was 373%.
In the case of `O=C(c1csnn1)N1CC(N2CCN(C(=O)c3cc4cc(C(F)(F)F)ccc4s3)CC2)C1` [Cpd 753], the Kd [1, 5] is reported as 0.515 µM, the IC50 [2] is reported as 0.434 µM and the 2-AG accumulation, % of vehicle control at 1 µM [3] is reported as 173%.
`O=C(c1cc(F)c2c(ccn2-c2ccc(F)cc2)c1)N1CC(N2CCN(C(=O)c3cscn3)CC2)C1` [Cpd 1111] gave a Kd ([1]; compound concentration measured by qNMR, read-out: MGL mutant ThermoFluor qKd (using qNMR conc.)) of 0.009 µM, an IC50 [2] of 0.016 µM and a 2-AG accumulation, % of vehicle control at 1 µM [3] of 508%.
Work on `O=C(c1ccc(-c2nc(-c3ccc(F)cc3)cs2)cc1)N1CC(N2CCN(C(=O)c3nccs3)CC2)C1` [Cpd 1082] yielded a Kd [1, 5] of 0.003 µM, an IC50 [2] of 0.009 µM and a 2-AG accumulation, % of vehicle control at 1 µM [3] of 742%.
Molecule `O=C(c1ccc2c(c1)Sc1ccccc1O2)N1CC(N2CCN(C(=O)c3cscn3)CC2)C1` [Cpd 654] has a Kd [1, 6] of 0.04 µM, an IC50 [2] of 0.007 µM and a 2-AG accumulation, % of vehicle control at 1 µM [3] of 389%.
`O=C(c1ccc2c(ccn2-c2cc(F)c(F)c(F)c2)c1)N1CC(N2CCN(C(=O)c3nccs3)CC2)C1` [Cpd 1367] gave a Kd [1, 6] of 0.002 µM, an IC50 [2] of under 0.005 µM and a 2-AG accumulation, % of vehicle control at 1 µM [3] of 798%.
`O=C(c1ccccc1)N1CCN(C2CN(C(=O)c3ccc(Oc4cccc(C(F)(F)F)c4)cc3)C2)CC1` [Cpd 419, 1-(Phenylcarbonyl)-4-[1-({4-[3-(trifluoromethyl)phenoxy]phenyl}carbonyl)azetidin-3-yl]piperazine] showed a Kd [1, 5] of 0.123 µM, an IC50 [2] of 0.17 µM and a 2-AG accumulation, % of vehicle control at 1 µM [3] of 109%.
`Cc1c(C(=O)N2CC(N3CCN(C(=O)c4nccs4)CC3)C2)sc2nc(C(F)(F)F)ccc12` [Cpd 686] was tested, and the Kd [1, 4] was 0.002 µM, the IC50 [2] was 0.039 µM and the 2-AG accumulation, % of vehicle control at 1 µM [3] was 552%.
Molecule `Cc1sc(C(=O)N2CC(N3CCN(C(=O)c4nccs4)CC3)C2)cc1-c1cccc(F)c1` [Cpd 1059] has a Kd [1, 4] of 0.066 µM, an IC50 [2] of 0.006 µM and a 2-AG accumulation, % of vehicle control at 1 µM [3] of 507%.
`O=C(c1ccc(COc2cccc(Cl)c2)cc1)N1CC(N2CCN(C(=O)c3cscn3)CC2)C1` [Cpd 959] showed a Kd [1, 5] of 0.044 µM, an IC50 [2] of under 0.005 µM and a 2-AG accumulation, % of vehicle control at 1 µM [3] of 861%.
`N#Cc1ccc(-c2ccc(C(=O)N3CC(N4CCN(C(=O)c5nccs5)CC4)C3)cc2)cc1` [Cpd 167, 4′-({3-[4-(1,3-Thiazol-2-ylcarbonyl)piperazin-1-yl]azetidin-1-yl}carbonyl)biphenyl-4-carbonitrile] was tested, and the Kd [1, 5] was 0.0558 µM, the IC50 [2] was 0.0152 µM and the 2-AG accumulation, % of vehicle control at 1 µM [3] was 481%.
With `O=C(c1ccc2c(ccn2-c2ccc(C(F)(F)F)cc2)c1)N1CC(N2CCN(C(=O)c3ccns3)CC2)C1` [Cpd 1097, 5-({3-[4-(Isothiazol-5-ylcarbonyl)piperazin-1-yl]azetidin-1-yl}carbonyl)-1-[4-(trifluoromethyl)phenyl]-1H-indole] the Kd [1, 5] was 0.032 µM, the IC50 [2] was 0.012 µM and the 2-AG accumulation, % of vehicle control at 1 µM [3] was 422%.
For `O=C(c1ccc2c(ccn2-c2cc(F)cc(F)c2)c1)N1CC(N2CCN(C(=O)c3nccs3)CC2)C1` [Cpd 1371], the Kd [1, 4] was 0.003 µM, the IC50 [2] was under 0.005 µM and the 2-AG accumulation, % of vehicle control at 1 µM [3] was 827%.
Molecule `O=C(c1nccs1)N1CCN(C2CN(C(=O)c3sc4cc(F)ccc4c3C3CCC3)C2)CC1` [Cpd 695] has a Kd [1, 5] of 0.001 µM, an IC50 [2] of 0.057 µM and a 2-AG accumulation, % of vehicle control at 1 µM [3] of 497%.
In the case of `O=C(c1ccc2c(-c3ccccc3)c[nH]c2c1)N1CC(N2CCN(C(=O)c3nccs3)CC2)C1` [Cpd 1316], the Kd [1, 5] is reported as 0.002 µM, the IC50 [2] is reported as under 0.005 µM and the 2-AG accumulation, % of vehicle control at 1 µM [3] is reported as 602%.
Molecule `Cn1ccc2cc(C(=O)N3CC(N4CCN(C(=O)c5nccs5)CC4)C3)cc(Br)c21` [Cpd 681] has a Kd [1, 4] of 0.067 µM, an IC50 [2] of 0.027 µM and a 2-AG accumulation, % of vehicle control at 1 µM [3] of 406%.
Work on `O=C(c1ccc(-n2nc3c(c2-c2ccc(Cl)cc2)CCCC3)cc1)N1CC(N2CCN(C(=O)c3nccs3)CC2)C1` [Cpd 1327] yielded a Kd [1, 5] of 0.005 µM, an IC50 [2] of under 0.005 µM and a 2-AG accumulation, % of vehicle control at 1 µM [3] of 966%.
`Cc1cc(C(=O)N2CCN(C3CN(C(=O)c4ccc(-c5ccccc5)cc4)C3)CC2)no1` [Cpd 1465] was tested, and the Kd [1, 6] was over 31.2 µM, the IC50 [2] was over 16.7 µM and the 2-AG accumulation, % of vehicle control at 1 µM [3] was 110%.
`Cc1cn(-c2ccc(F)cc2)c2ccc(C(=O)N3CCN(C4CN(C(=O)c5nccs5)C4)CC3)cc12` [Cpd 1089, 1-(4-Fluorophenyl)-3-methyl-5-({4-[1-(1,3-thiazol-2-ylcarbonyl)azetidin-3-yl]piperazin-1-yl}carbonyl)-1H-indole] gave a Kd [1, 5] of 0.009 µM, a Kd [1, 7] of 0.006 µM and an IC50 [2] of 0.01 µM. It also gave a 2-AG accumulation, % of vehicle control at 1 µM [3] of 545%.
For `O=C(c1nccs1)N1CCN(C2CN(C(=O)c3cc(-c4ccccc4)ccc3Cl)C2)CC1` [Cpd 1200], the Kd [1, 5] was 0.5 µM, the IC50 [2] was 0.151 µM and the 2-AG accumulation, % of vehicle control at 1 µM [3] was 231%.
Work on `Cc1ccc(-n2ccc3cc(C(=O)N4CC(N5CCN(C(=O)c6nccs6)CC5)C4)ccc32)cn1` [Cpd 1105, 1-(6-Methylpyridin-3-yl)-5-({3-[4-(1,3-thiazol-2-ylcarbonyl)piperazin-1-yl]azetidin-1-yl}carbonyl)-1H-indole] yielded a Kd [1, 7] of 0.023 µM, an IC50 [2] of 0.013 µM and a 2-AG accumulation, % of vehicle control at 1 µM [3] of 734%.
With `O=C(c1cccc(-c2cccc(C(F)(F)F)c2)c1)N1CC(N2CCN(C(=O)c3nccs3)CC2)C1` [Cpd 1093] the Kd [1, 5] was 0.24 µM, the IC50 [2] was 0.011 µM and the 2-AG accumulation, % of vehicle control at 1 µM [3] was 472%.
Molecule `O=C(c1ccc(-c2ccccc2)c(F)c1)N1CC(N2CCN(C(=O)c3nccs3)CC2)C1` [Cpd 166, 1-{1-[(2-Fluorobiphenyl-4-yl)carbonyl]azetidin-3-yl}-4-(1,3-thiazol-2-ylcarbonyl)piperazine] has a Kd [1, 5] of 0.005 µM, an IC50 [2] of under 0.005 µM and a 2-AG accumulation, % of vehicle control at 1 µM [3] of 509%.
`O=C(c1nccs1)N1CCN(C2CN(C(=O)c3[nH]c4nc(C(F)(F)F)ccc4c3Br)C2)CC1` [Cpd 675] gave a Kd [1, 7] of 0.025 µM, an IC50 [2] of 0.019 µM and a 2-AG accumulation, % of vehicle control at 1 µM [3] of 330%.
In the case of `O=C(c1cc(-c2ccccc2)cc(C(F)(F)F)c1)N1CC(N2CCN(C(=O)c3nccs3)CC2)C1` [Cpd 1144, 1-(1,3-Thiazol-2-ylcarbonyl)-4-(1-{[5-(trifluoromethyl)biphenyl-3-yl]carbonyl}azetidin-3-yl)piperazine], the Kd [1, 5] is reported as 0.181 µM, the IC50 [2] is reported as 0.031 µM and the 2-AG accumulation, % of vehicle control at 1 µM [3] is reported as 212%.
Work on `O=C(c1ccc(-c2nc(-c3ccccc3)c(-c3ccccc3)[nH]2)cc1)N1CC(N2CCN(C(=O)c3nccs3)CC2)C1` [Cpd 1179] yielded a Kd [1, 5] of 0.005 µM, an IC50 [2] of 0.073 µM and a 2-AG accumulation, % of vehicle control at 1 µM [3] of 996%.
Molecule `Cc1c(C(=O)N2CC(N3CCN(C(=O)c4nccs4)CC3)C2)[nH]c2ccc(-c3ccc(F)cc3)cc12` [Cpd 1075, 5-(4-Fluorophenyl)-3-methyl-2-({3-[4-(1,3-thiazol-2-ylcarbonyl)piperazin-1-yl]azetidin-1-yl}carbonyl)-1H-indole] has a Kd [1, 4] of 0.01 µM, an IC50 [2] of 0.008 µM and a 2-AG accumulation, % of vehicle control at 1 µM [3] of 833%.
Work on `COc1cc(-n2ccc3cc(C(=O)N4CC(N5CCN(C(=O)c6nccs6)CC5)C4)ccc32)ccn1` [Cpd 1107, 1-(2-Methoxypyridin-4-yl)-5-({3-[4-(1,3-thiazol-2-ylcarbonyl)piperazin-1-yl]azetidin-1-yl}carbonyl)-1H-indole] yielded a Kd [1, 7] of 0.003 µM, an IC50 [2] of 0.014 µM and a 2-AG accumulation, % of vehicle control at 1 µM [3] of 838%.
